Laboratory results reported in article PMC7221793, “Metabolism and Pharmacokinetics of SP-8356, a Novel (1S)-(−)-Verbenone Derivative, in Rats and Dogs and Its Implications in Humans” (Molecules, 2020).

Experiment: In vivo metabolite identification, pooled rat urine
Details: rat pooled urine 0–24 h, single i.v. dose of SP-8356
Experimental: Rat urine samples were collected from the animal studies approved by the IACUC of Korea University (Approval No.: KUIACUC-2017-124; Approval date: Jul. 29, 2017). SP-8356 dissolved in DMA/Cremophor EL/saline (5/10/85 vol.%) was dosed i.v. at 10 mg/kg (n = 5/dose group) to male SD rats (8 weeks old; (255–275) g; Koatech Inc., Gyeonggi, Republic of Korea) housed individually in metabolic cages. Urine samples were collected for ((0–4), (4–8) and (8–24)) h. Pooled urine samples were mixed with equal volume of acetonitrile containing HSDH (1 μg/mL) as IS, followed by filtration with a syringeless filter device (Mini-UniPrep™, PTFE filter media with polypropylene housing, 0.45 µm). The filtrate was analyzed by Agilent 6530 Q-TOF LC-MS/MS system equipped with dual AJS ESI ion source and Agilent 1200 series HPLC system, as follows.
Chromatographic separation was achieved on an Agilent Eclipse C18 column (2.1 mm × 100 mm, 3.5 µm) by a gradient elution with a mobile phase consisting of 0.1 vol.% formic acid in water (A) and 0.1 vol.% formic acid in acetonitrile (B) at 50 °C: starting with 5 vol.% B for 2 min, ramping to 95 vol.% B over 1 min, maintaining for 3 min. The mobile phase flow rate was kept at 0.45 mL/min throughout the run. The sample injection volume was 5 µL. […]

COc1cc(/C=C/C2=CC(=O)[C@H]3C[C@@H]2C3(C)C)cc(O)c1O [SP-8356, (1S,5R)-4-((E)-3,4-dihydroxy-5-methoxystryryl)-6,6-dimethylbicylco[3.1.1]hept-3-en-2-one]
relative peak size (AR) in urine, in total: almost insignificant
